Assay results published in article PMC5041986 (Oncotarget, 2016).

Tests used:
Assay type in all cases: cell-based
[1] = tested on: RT-112 cells; assay: MTT cell viability assay; conditions: 72 h, mean
Method: (§1) Cells were seeded in 96-well plates and exposed to DMSO, or indicated compounds for 72 hours. Cell viability was assessed using the 3-(4,5-dimethylthiazol-2-yl)-2,5-diphenyltetrazolium bromide (MTT) assay as described previously [46]. Briefly, 100 μl of 0.5 mg/ml MTT were added to each well and incubated at 37°C for 1 hour. After that, 100 μl of extraction reagents (0.1 M sodium acetate buffer for suspension cells or DMSO for attached cells) were added to each well to lyse cells and absorbance at 550 nm was measured. Cell viability was expressed as the percentage of surviving cells in drug-treated versus DMSO-treated control cells (which was considered as 100% viability).

[2] = tested on: PLC/PRF/5 cells; assay: MTT cell viability assay; conditions: PLC5/PRF/5, 5 μM, 72 h, mean
Method: as §1

[3] = tested on: Hep3B cells; assay: MTT cell viability assay; conditions: 72 h, mean
Method: as §1

[4] = tested on: SNU-16 cells; assay: MTT cell viability assay; conditions: SNU-16, 5 μM, 72 h, mean
Method: as §1

[5] = tested on: RT-112 cells; assay: Flow cytometric cell cycle analysis; conditions: 48 h to 72 h, flow cytometry
Method: Cells were seeded in 6-well plates and treated with DMSO or indicated compounds at various concentrations for the indicated times. After treatment, the cells were harvested by trypsinization, washed with PBS, and the pellets were fixed in ice-cold 70% ethanol at -20°C overnight. After centrifugation, the cells were incubated for 15 minutes at room temperature in 0.1 mL of phosphate-citric acid buffer (0.2 M NaHPO4, 0.1 M citric acid, and pH 7.8) and then stained with propidium iodide staining buffer containing Triton X-100 (0.1%, v/v), RNase A (100 μg/mL), and propidium iodide (80 μg/mL) for 30 minutes in the dark. DNA contents were analyzed by flow cytometry with CellQuest software (Becton Dickinson, Mountain View, CA, USA). The results were obtained from three independent experiments and the representative data were shown in Supplementary Figure S8 and S9.

SMILES	Viability (% of control cells) RT-112 (10 μM) [1]	Viability (% of control cells) PLC5/PRF/5 (5 μM) [2]	Viability (% of control cells) Hep3B (5 μM) [3]	Viability (% of control cells) RT-112 (5 μM) [1]	Viability (% of control cells) SNU-16 (5 μM) [4]	accumulation of the sub-G1 phase (apoptotic cell death) [5]
COc1c(Cl)c(NC(=O)N(C)c2cc(-c3ccco3)ncn2)c(Cl)c(OC)c1Cl [MPT0L154]	76.1 % of control cells	–	–	–	–	–
COc1c(Cl)c(NC(=O)N(C)c2cc(-c3ccc(C#N)cc3)ncn2)c(Cl)c(OC)c1Cl [MPT0L152]	55.3 % of control cells	–	–	–	–	–
CCN1CCN(c2ccc(Nc3cc(N(C)C(=O)Nc4c(Cl)c(OC)c(Cl)c(OC)c4Cl)ncn3)cc2)CC1 [MPT0L090]	12.7 % of control cells	72.6 % of control cells	47.1 % of control cells	52.6 % of control cells	27.5 % of control cells	–
CC(=O)O[C@H]1C(=O)[C@@]2(C)[C@H]([C@H](OC(=O)c3ccccc3)[C@]3(O)C[C@H](OC(=O)[C@H](O)[C@@H](NC(=O)c4ccccc4)c4ccccc4)C(C)=C1C3(C)C)[C@]1(OC(C)=O)CO[C@@H]1C[C@@H]2O [paclitaxel]	–	–	–	–	–	induced pronounced apoptosis
COc1c(Cl)c(NC(=O)N(C)c2cc(-c3ccc(F)cc3)ncn2)c(Cl)c(OC)c1Cl [MPT0L155]	44.4 % of control cells	55.3 % of control cells	72.8 % of control cells	92.6 % of control cells	80.5 % of control cells	–
CCN1CCN(c2ccc(-c3cc(N(C)C(=O)Nc4c(Cl)c(OC)c(Cl)c(OC)c4Cl)ncn3)cc2)CC1 [MPT0L182]	8.6 % of control cells	78.3 % of control cells	96.3 % of control cells	95.6 % of control cells	63.2 % of control cells	–
COc1c(Cl)c(NC(=O)N(C)c2cc(-c3ccc(Cl)cc3)ncn2)c(Cl)c(OC)c1Cl [MPT0L156]	34.8 % of control cells	44.4 % of control cells	54.3 % of control cells	98.3 % of control cells	76.7 % of control cells	–
